According to US9624255B2, “Carbohydrate-mediated tumor targeting” (Arizona Board of Regents, priority 2009, dated 2017):

Experiments:
[1] = system: A-549 lung carcinoma cells; assay: Visualization of cell association of fluorescent-disaccharide probe (fluorescence microscopy); format: cell-based; conditions: 1 fM, five minutes at 37° C.; A-549 compared with CCL-75 normal lung fibroblasts; FIG. 5
Experimental: In this case, we tethered a non-fluorescent pro-fluorophore, 5(6)-carboxyfluorescein diacetate (CFSE) onto the disaccharide of bleomycin to create a BLM-sugar probe. This fluorophore should only fluoresce when acted upon by the cell, where intracellular esterases cleave the acetate groups allowing for detectable fluorescence.
Both A-549 lung carcinoma cells and CCL-75 normal lung fibroblasts were seeded on 35 mm glass cover slips at a density of 2.5×10^5 cells before incubating 48 hours to allow attachment and growth. A total effective concentration of 1 fM of the fluorescent-sugar derivative (34) and 5(6)-carboxyfluorescein diacetate N-succinimidyl ester (CFSE) compounds were added to cover slips of each cell type before incubation for five minutes at 37° C. To prepare slides for microscopy viewing, cover slips were washed in PBS and 70% ethanol solution before fixation in Histochoice MB Fixative (Electron Microscopy Sciences, Hatfield, Pa.) for 15 minutes. Fixed cover slips were mounted onto glass slides for viewing. Using the Zeiss Axiovert 200M inverted microscope (Apotome camera), fluorescent images were acquired using DIC (at 35 ms exposure time) and appropriate fluorescence filter at 470-490 nm excitation (761 ms exposure time), 40× objective magnification.

MCF-7 (Breast carcinoma) = assay: Microbubble attachment to cultured cells (flow chamber, inverted microscopy); format: cell-based
Experimental: To create BLM A5- and deglyco BLM A5-microbubbles, the synthesized biotinylated compounds (1, 2 and 32) were conjugated to Targestar^B Targeted Ultrasound Contrast Agents (Targeson). For each of these preparations, 400 μL of Coupling Reagent (Targeson) was added to 1.5 mL of conjugated Targestar^B microbubbles and incubated for 20 min at room temperature, with gentle agitation every 5 min. The resulting product was divided into two syringes, each rinsed with 1.75 mL of Infusion Buffer, and then centrifuged for 3 min (400×g, 10° C.). The infranatant was then drained to 1 mL. For each separate preparation, […] containing 50 nM of the biotinylated compound was added to one of the vials and both were incubated at room temperature for 20 min with gentle agitation every 5 min. To each sample was added 1.75 mL of Infusion Buffer before centrifugation for 3 min at 400×g (10° C.). This solution was then drained to 1.0 mL before recovery of the supernatant and repetition of the previous step. Finally, the supernatant was resuspended in Infusion Buffer to a final volume of 2.0 mL.
Attachment of the (biotinylated BLM A5-, biotinylated deglyco BLM A5-, and biotinylated BLM A5 disaccharide-conjugated) microbubbles to the cultured cancer cells was imaged using an inverted microscope Zeiss Axiovert 200M fitted with an AxioCam MRm camera. […]

5(6)-carboxyfluorescein diacetate N-succinimidyl ester [CFSE, reference compound]
Fluorescence of cells after exposure to compound [1]: lack of marked fluorescence

NC(=O)O[C@@H]1[C@H](O)[C@@H](O[C@@H]2[C@H](OCCOCCNC(=O)CCCC[C@@H]3SC[C@@H]4NC(=O)N[C@@H]43)O[C@@H](CO)[C@@H](O)[C@@H]2O)O[C@H](CO)[C@H]1O [Compound 32, (2R,3S,4S,5R,6R)-2-((2R,3S,4S,5S,6S)-4,5-dihydroxy-6-(hydroxymethyl)-2-(2-(2-(5-((3aS,4S,6aR)-2-oxohexahydro-1H-thieno[3,4-d]imidazol-4-yl)pentanamido)ethoxy)ethoxy)tetrahydro-2H-pyran-3-yloxy)-3,5-dihydroxy-6-(hydroxymethyl)tetrahydro-2H-pyran-4-yl Carbamate]
Microbubble attachment to MCF-7 cells (in words) (MCF-7 (Breast carcinoma); MCF-7 breast carcinoma cells, compound conjugated to microbubble, FIG. 3/4): greater attachment than biotinylated bleomycin A5 | Preferential attachment, tumor over normal cells (MCF-7 (Breast carcinoma); MCF-7 versus MCF-10A, conjugated onto the microbubble, FIG. 4a): preferential attachment to MCF-7 tumor cells over MCF-10A cells

CC(=O)Oc1ccc2c(c1)Oc1cc(OC(C)=O)ccc1C21OC(=O)c2cc(C(=O)NCCOCCO[C@@H]3O[C@@H](CO)[C@@H](O)[C@H](O)[C@@H]3O[C@H]3O[C@H](CO)[C@@H](O)[C@H](OC(N)=O)[C@@H]3O)ccc21 [Compound 34, (4,5)-(2-(2-((2R,3S,4S,5S,6S)-3-((2R,3S,4S,5R,6R)-4-(Carbamoyloxy)-3,5-dihydroxy-6-(hydroxymethyl)tetrahydro-2H-pyran-2-yloxy)-4,5-dihydroxy-6-(hydroxymethyl)tetrahydro-2H-pyran-2-yloxy)ethoxy)ethylcarbamoyl)-3-oxo-3H-spiro[isobenzofuran-1,9′-xanthene]-3′,6′-diyl Diacetate]
Fluorescence of cells after exposure to compound [1]: highest fluorescence only in the tumor cell line
